Converted amounts (≈) assume the structure as drawn.
Columns and labels:
Assay type in all cases: functional
Streptococcus pyogenes [1] = test: Antibacterial activity against erythromycin resistant Streptococcus pyogenes R1 by standard broth microdilution method
Streptococcus pyogenes [2] = test: Potency index, ratio of MIC of CAM to MIC of compound for antibacterial activity against erythromycin resistant Streptococcus pyogenes R1
Pseudomonas aeruginosa = test: Antibacterial activity against penicillin-susceptible Pseudomonas aeruginosa ATCC 27853 by standard broth microdilution method
Streptococcus pneumoniae [3] = test: Antibacterial activity against erythromycin-resistant Streptococcus pneumoniae B1 expressing ermB gene by standard broth microdilution method
Streptococcus pyogenes [4] = test: Potency index, ratio of MIC of AZM to MIC of compound for antibacterial activity against erythromycin resistant Streptococcus pyogenes R1
Staphylococcus aureus [5] = test: Antibacterial activity against methicillin-resistant Staphylococcus aureus ATCC 43300 by standard broth microdilution method
Staphylococcus aureus [6] = test: Antibacterial activity against erythromycin-susceptible Staphylococcus aureus ATCC 25923 by standard broth microdilution method
Escherichia coli = test: Antibacterial activity against penicillin-susceptible Escherichia coli ATCC 25922 by standard broth microdilution method
Bacillus subtilis [7] = test: Antibacterial activity against penicillin-susceptible Bacillus subtilis ATCC 9372 by standard broth microdilution method
Streptococcus pneumoniae [8] = test: Antibacterial activity against erythromycin-resistant Streptococcus pneumoniae AB11 expressing ermB and me/A genes by standard broth microdilution method
Streptococcus pneumoniae [9] = test: Potency index, ratio of MIC of CAM to MIC of compound for antibacterial activity against erythromycin-resistant Streptococcus pneumoniae AB11 expressing ermB and me/A genes
Streptococcus pneumoniae [10] = test: Potency index, ratio of MIC of AZM to MIC of compound for antibacterial activity against erythromycin-resistant Streptococcus pneumoniae AB11 expressing ermB and me/A genes
Bacillus subtilis [11] = test: Ratio of MBC for penicillin-susceptible Bacillus subtilis ATCC 9372 to MIC for penicillin-susceptible Bacillus subtilis ATCC 9372
Streptococcus pneumoniae [12] = test: Ratio of MBC for erythromycin-resistant Streptococcus pneumoniae AB11 expressing ermB and me/A genes to MIC for erythromycin-resistant Streptococcus pneumoniae AB11 expressing ermB and me/A genes
Bacillus subtilis [13] = test: Bactericidal activity against penicillin-susceptible Bacillus subtilis ATCC 9372
Streptococcus pneumoniae [14] = test: Bactericidal activity against erythromycin-resistant Streptococcus pneumoniae AB11 expressing ermB and me/A genes

Row | SMILES | MIC (Streptococcus pyogenes [1]) [mg/L] | Ratio (Streptococcus pyogenes [2]) | MIC (Pseudomonas aeruginosa) [mg/L] | MIC (Streptococcus pneumoniae [3]) [mg/L] | Ratio (Streptococcus pyogenes [4]) | MIC (Staphylococcus aureus [5]) [mg/L] | MIC (Staphylococcus aureus [6]) [mg/L] | MIC (Escherichia coli) [mg/L] | MIC (Bacillus subtilis [7]) [mg/L] | MIC (Streptococcus pneumoniae [8]) [mg/L] | Ratio (Streptococcus pneumoniae [9]) | Ratio (Streptococcus pneumoniae [10]) | Ratio (Bacillus subtilis [11]) | Ratio (Streptococcus pneumoniae [12]) | MBC (Bacillus subtilis [13]) [mg/L] | MBC (Streptococcus pneumoniae [14]) [mg/L]
1 | CCCCc1ccc(-c2cn(CCNC(=O)O[C@@H]3[C@@H](C)C(=O)[C@H](C)C[C@@](C)(OC)[C@H](O[C@H]4O[C@@H](C)C[C@@H](N(C)C)[C@@H]4O)[C@@H](C)C(=O)[C@@H](C)C(=O)O[C@H](CC)[C@@]3(C)O)nn2)cc1 | 32 (≈ 37.3 µM) | 8 - 16 | 128 (≈ 149 µM) | 128 (≈ 149 µM) | 8 - 16 | 256 (≈ 298 µM) | 16 (≈ 18.6 µM) | > 128 | 4 (≈ 4.66 µM) | 64 (≈ 74.6 µM) | – | – | – | – | – | –
2 | CC[C@H]1OC(=O)[C@H](C)C(=O)[C@H](C)[C@@H](O[C@H]2O[C@@H](C)C[C@@H](N(C)C)[C@@H]2O)[C@](C)(OC)C[C@@H](C)C(=O)[C@H](C)[C@@H](OC(=O)NCCCn2cc(-c3cccc(Br)c3)nn2)[C@]1(C)O | 32 (≈ 35.8 µM) | 8 - 16 | 128 (≈ 143 µM) | 64 (≈ 71.5 µM) | 8 - 16 | 128 (≈ 143 µM) | 8 (≈ 8.94 µM) | > 128 | 2 (≈ 2.23 µM) | 32 (≈ 35.8 µM) | 4 - 8 | 8 - 16 | – | – | – | –
3 | CC[C@H]1OC(=O)[C@H](C)[C@@H](O[C@H]2C[C@@](C)(OC)[C@@H](O)[C@H](C)O2)[C@H](C)[C@@H](O[C@@H]2O[C@H](C)C[C@H](N(C)C)[C@H]2O)[C@](C)(OC)C[C@@H](C)C(=O)[C@H](C)[C@@H](O)[C@]1(C)O [CLARITHROMYCIN] | 256 (≈ 342 µM) | – | 32 (≈ 42.8 µM) | > 256 | – | > 256 | 0.25 (≈ 0.334 µM) | > 128 | 0.25 (≈ 0.334 µM) | 128 (≈ 171 µM) | – | – | 128 | 16 | 128 (≈ 171 µM) | 256 (≈ 342 µM)
4 | CC[C@H]1OC(=O)[C@H](C)C(=O)[C@H](C)[C@@H](O[C@H]2O[C@@H](C)C[C@@H](N(C)C)[C@@H]2O)[C@](C)(OC)C[C@@H](C)C(=O)[C@H](C)[C@@H](OC(=O)NCCn2cc(-c3ccc(-c4ccccc4)cc3)nn2)[C@]1(C)O | 32 (≈ 36.4 µM) | 8 - 16 | 128 (≈ 146 µM) | 128 (≈ 146 µM) | 8 - 16 | 128 (≈ 146 µM) | 32 (≈ 36.4 µM) | > 128 | 4 (≈ 4.56 µM) | 64 (≈ 72.9 µM) | – | – | – | – | – | –
5 | CC[C@H]1OC(=O)[C@H](C)C(=O)[C@H](C)[C@@H](O[C@H]2O[C@@H](C)C[C@@H](N(C)C)[C@@H]2O)[C@](C)(OC)C[C@@H](C)C(=O)[C@H](C)[C@@H](OC(=O)NCCCn2cc(-c3ccccc3OC)nn2)[C@]1(C)O | 64 (≈ 75.6 µM) | – | 128 (≈ 151 µM) | 256 (≈ 303 µM) | – | > 256 | 8 (≈ 9.46 µM) | > 128 | 2 (≈ 2.36 µM) | 32 (≈ 37.8 µM) | 4 - 8 | 8 - 16 | – | – | – | –
6 | CCOc1ccc(-c2cn(CCNC(=O)O[C@@H]3[C@@H](C)C(=O)[C@H](C)C[C@@](C)(OC)[C@H](O[C@H]4O[C@@H](C)C[C@@H](N(C)C)[C@@H]4O)[C@@H](C)C(=O)[C@@H](C)C(=O)O[C@H](CC)[C@@]3(C)O)nn2)cc1 | 128 (≈ 151 µM) | – | 128 (≈ 151 µM) | > 256 | – | > 256 | 16 (≈ 18.9 µM) | > 128 | 16 (≈ 18.9 µM) | 256 (≈ 303 µM) | – | – | – | – | – | –
7 | CC[C@H]1OC(=O)[C@H](C)C(=O)[C@H](C)[C@@H](O[C@H]2O[C@@H](C)C[C@@H](N(C)C)[C@@H]2O)[C@](C)(OC)C[C@@H](C)C(=O)[C@H](C)[C@@H](OC(=O)NCCn2cc(-c3ccccc3)nn2)[C@]1(C)O | 256 (≈ 319 µM) | – | 128 (≈ 160 µM) | 256 (≈ 319 µM) | – | > 256 | 32 (≈ 39.9 µM) | > 128 | 8 (≈ 9.98 µM) | 256 (≈ 319 µM) | – | – | – | – | – | –
8 | CC[C@H]1OC(=O)[C@H](C)C(=O)[C@H](C)[C@@H](O[C@H]2O[C@@H](C)C[C@@H](N(C)C)[C@@H]2O)[C@](C)(OC)C[C@@H](C)C(=O)[C@H](C)[C@@H](OC(=O)NCCn2cc(-c3ccccc3Cl)nn2)[C@]1(C)O | 64 (≈ 76.5 µM) | – | 128 (≈ 153 µM) | 128 (≈ 153 µM) | – | 256 (≈ 306 µM) | 8 (≈ 9.56 µM) | > 128 | 4 (≈ 4.78 µM) | 128 (≈ 153 µM) | – | – | – | – | – | –
9 | CC[C@H]1OC(=O)[C@H](C)C(=O)[C@H](C)[C@@H](O[C@H]2O[C@@H](C)C[C@@H](N(C)C)[C@@H]2O)[C@](C)(OC)C[C@@H](C)C(=O)[C@H](C)[C@@H](OC(=O)NCCn2cc(-c3ccc(C(C)(C)C)cc3)nn2)[C@]1(C)O | 64 (≈ 74.6 µM) | – | 128 (≈ 149 µM) | 128 (≈ 149 µM) | – | 256 (≈ 298 µM) | 32 (≈ 37.3 µM) | > 128 | 8 (≈ 9.32 µM) | 128 (≈ 149 µM) | – | – | – | – | – | –
10 | CC[C@H]1OC(=O)[C@H](C)C(=O)[C@H](C)[C@@H](O[C@H]2O[C@@H](C)C[C@@H](N(C)C)[C@@H]2O)[C@](C)(OC)C[C@@H](C)C(=O)[C@H](C)[C@@H](OC(=O)NCCCn2cc(-c3cccc(N)c3)nn2)[C@]1(C)O | 128 (≈ 154 µM) | – | 128 (≈ 154 µM) | 128 (≈ 154 µM) | – | > 256 | 16 (≈ 19.3 µM) | > 128 | 4 (≈ 4.81 µM) | 32 (≈ 38.5 µM) | 4 - 8 | 8 - 16 | – | – | – | –
11 | CC[C@H]1OC(=O)[C@H](C)[C@@H](O[C@H]2C[C@@](C)(OC)[C@@H](O)[C@H](C)O2)[C@H](C)[C@@H](O[C@@H]2O[C@H](C)C[C@H](N(C)C)[C@H]2O)[C@](C)(O)C[C@@H](C)CN(C)[C@H](C)[C@@H](O)[C@]1(C)O [AZITHROMYCIN] | 256 (≈ 342 µM) | – | 4 (≈ 5.34 µM) | > 256 | – | > 256 | 0.25 (≈ 0.334 µM) | > 128 | 0.25 (≈ 0.334 µM) | 256 (≈ 342 µM) | – | – | – | – | – | –
12 | CC[C@H]1OC(=O)[C@H](C)C(=O)[C@H](C)[C@@H](O[C@H]2O[C@@H](C)C[C@@H](N(C)C)[C@@H]2O)[C@](C)(OC)C[C@@H](C)C(=O)[C@H](C)[C@@H](OC(=O)NCCCn2cc(-c3ccc(C(C)(C)C)cc3)nn2)[C@]1(C)O | 32 (≈ 36.7 µM) | 8 - 16 | 128 (≈ 147 µM) | 64 (≈ 73.4 µM) | 8 - 16 | 128 (≈ 147 µM) | 16 (≈ 18.3 µM) | > 128 | 16 (≈ 18.3 µM) | 64 (≈ 73.4 µM) | – | – | – | – | – | –
13 | CC[C@H]1OC(=O)[C@H](C)C(=O)[C@H](C)[C@@H](O[C@H]2O[C@@H](C)C[C@@H](N(C)C)[C@@H]2O)[C@](C)(OC)C[C@@H](C)C(=O)[C@H](C)[C@@H](OC(=O)NCCn2cc(-c3ccccc3OC)nn2)[C@]1(C)O | 256 (≈ 308 µM) | – | 128 (≈ 154 µM) | > 256 | – | > 256 | 16 (≈ 19.2 µM) | > 128 | 4 (≈ 4.81 µM) | > 256 | – | – | – | – | – | –
14 | CC[C@H]1OC(=O)[C@H](C)C(=O)[C@H](C)[C@@H](O[C@H]2O[C@@H](C)C[C@@H](N(C)C)[C@@H]2O)[C@](C)(OC)C[C@@H](C)C(=O)[C@H](C)[C@@H](OC(=O)NCCn2cc(-c3cccc([N+](=O)[O-])c3)nn2)[C@]1(C)O | 64 (≈ 75.6 µM) | – | 128 (≈ 151 µM) | 256 (≈ 302 µM) | – | > 256 | 8 (≈ 9.45 µM) | > 128 | 4 (≈ 4.72 µM) | 128 (≈ 151 µM) | – | – | – | – | – | –
